26 compounds from patent US7160888B2, “[1,8]naphthyridin-2-ones and related compounds for the treatment of schizophrenia” (Warner Lambert Company LLC, priority 2003, dated 2007) can be followed below.

The structures appear in SMILES notation.

This assay deals with D2 receptor (Homo sapiens, UniProt P14416). As to the kind of experiment: [3H]Thymidine uptake assay for D2 intrinsic activity. Type of assay: cell-based. Particulars: test compound 1 μM, 1 μM Quinpirole = 100% intrinsic activity.
D2 receptor, sequence (P14416 whole entry): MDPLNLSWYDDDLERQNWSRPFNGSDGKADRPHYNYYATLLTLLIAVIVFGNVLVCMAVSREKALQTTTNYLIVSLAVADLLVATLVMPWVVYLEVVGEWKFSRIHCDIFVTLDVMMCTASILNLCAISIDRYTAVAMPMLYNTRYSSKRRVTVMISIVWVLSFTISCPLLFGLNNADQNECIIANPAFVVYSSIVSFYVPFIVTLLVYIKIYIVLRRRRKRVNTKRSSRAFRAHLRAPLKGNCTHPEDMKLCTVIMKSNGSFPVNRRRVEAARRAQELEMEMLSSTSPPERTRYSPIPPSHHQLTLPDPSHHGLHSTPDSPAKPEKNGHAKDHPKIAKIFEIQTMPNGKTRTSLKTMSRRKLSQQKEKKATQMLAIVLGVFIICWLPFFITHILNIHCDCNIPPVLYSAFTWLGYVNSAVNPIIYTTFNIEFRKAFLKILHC

Method: D2 intrinsic activity of title compounds of the Examples, below, was determined using the [^3H]thymidine uptake assay described below.
[^3H]Thymidine Uptake Assay for D2 Intrinsic Activity
Cells are serum deprived by washing twice with 200 μl of serum-free media. 90 μl serum-free media was added to each well. The plates ware incubated for two to three hours. 10 μl of serum-containing media, as a positive control, vehicle (serum-free media), negative control (an antagonist) or test compounds and standards (10 μl of a 10 μM solution for a final concentration of 1 μM) in serum-free media were added to wells. The plates are returned to the incubator. Eighteen hours later [^3H]thymidine is added (0.5 μCi/well in 10 μl of serum-free media) and the plates are returned to the incubator. […] The plates are returned to the incubator, once again. One hour later the assay is terminated by rapid filtration through Whatman GF/C glass fiber filters. Filters are washed four times with 500 ml of 50 mM Tris-HCl pH 7.0 buffer, for example, using a Brandel MLR-96T cell harvester. […] Intrinsic activity is defined as total uptake (1 μM Quinpirole) minus serum-free media (no uptake). Test compounds are compared to 1 μM Quinpirole (full DA agonist), which was classified as 100% intrinsic activity.

As a reminder, the Emax is the greatest response seen or fitted, relative to the assay's reference. As for `CN1Cc2ccc(OCCCCN3CCN(c4cccc(Cl)c4Cl)CC3)nc2NC1=O` [Example F7, 7-{4-[4-(2,3-Dichloro-phenyl)-piperazin-1-yl]-butoxy}-3-methyl-3,4-dihydro-1H-pyrido[2,3-d]pyrimidin-2-one], the Emax at 1 µM (Table 1) was determined as 11%.

`CN1Cc2ccc(OCCCCN3CCN(c4cccc5ccccc45)CC3)nc2NC1=O` [Example F8, 3-Methyl-7-[4-(4-naphthalen-1-yl-piperazin-1-yl)-butoxy]-3,4-dihydro-1H-pyrido[2,3-d]pyrimidin-2-one] had an Emax at 1 µM (Table 1) of 15%.

`CC1(C)OC(=O)Nc2nc(CCCCCN3CCN(c4cccc(Cl)c4Cl)CC3)ccc21` [Example F9, 7-{5-[4-(2,3-Dichloro-phenyl)-piperazin-1-yl]-pentyl}-4,4-dimethyl-1,4-dihydro-pyrido[2,3-d][1,3]oxazin-2-one] yielded an Emax at 1 µM (Table 1) of 11%.

For the compound `O=C1COc2ccc(CCCCCN3CCN(c4cccc(Cl)c4Cl)CC3)nc2N1` [Example G1, 6-{5-[4-(2,3-Dichloro-phenyl)-piperazin-1-yl]-pentyl}-4H-pyrido[3,2-b][1,4]oxazin-3-one], for the setting “Table 1”, the Emax at 1 µM worked out at 27%.

As to `O=c1ccc2cnc(OCCCCN3CCN(c4cccc5c4OCCO5)CC3)nc2[nH]1` [Example G1′, 2-{4-[4-(2,3-Dihydro-benzo[1,4]dioxin-5-yl)-piperazin-1-yl]-butoxy}-8H-pyrido[2,3-d]pyrimidin-7-one], for the setting “Table 2”, the maximum response (Emax) at 1 µM stood at 20%.

Consider `O=C1COc2ccc(CCCCCN3CCN(c4cccc5c4CCCC5)CC3)nc2N1` [Example G2, 6-{5-[4-(5,6,7,8-Tetrahydro-naphthalen-1-yl)-piperazin-1-yl]-pentyl}-4H-pyrido[3,2-b][1,4]oxazin-3-one], for which, under “Table 1”, the maximal response (Emax) at 1 µM was determined as 6%.

Under “Table 2”, `O=c1ccc2cnc(OCCCCN3CCN(c4cccc5c4OCCC5)CC3)nc2[nH]1` [Example G2′, 2-[4-(4-Chroman-8-yl-piperazin-1-yl)-butoxy]-8H-pyrido[2,3-d]pyrimidin-7-one] yielded an Emax at 1 µM of 21%.

Compound `O=C1COc2ccc(OCCCCN3CCN(c4cccc(Cl)c4Cl)CC3)nc2N1` [Example G3, 6-{4-[4-(2,3-Dichloro-phenyl)-piperazin-1-yl]-butoxy}-4H-pyrido[3,2-b][1,4]oxazin-3-one] displayed an Emax at 1 µM (Table 1) of 25%.

As for `O=c1ccc2cnc(OCCCCN3CCN(c4cccc5cccnc45)CC3)nc2[nH]1` [Example G3′, 2-[4-(4-Quinolin-8-yl-piperazin-1-yl)-butoxy]-8H-pyrido[2,3-d]pyrimidin-7-one], where the note is “Table 2”, the Emax at 1 µM amounted to 28%.

With `O=c1ccc2cnc(OCCCCN3CCN(c4cccc5c4OCC5)CC3)nc2[nH]1` [Example G4′, 2-{4-[4-(2,3-Dihydro-benzofuran-7-yl)-piperazin-1-yl]-butoxy}-8H-pyrido[2,3-d]pyrimidin-7-one], the Emax at 1 µM (Table 2) is 13%.

As to `O=c1ccc2cnc(OCCCCN3CCN(c4cccc5c4OCCCO5)CC3)nc2[nH]1` [Example G5′, 2-{4-[4-(3,4-Dihydro-2H-benzo[b][1,4]dioxepin-6-yl)-piperazin-1-yl]-butoxy}-8H-pyrido[2,3-d]pyrimidin-7-one], under “Table 2”, the maximal response (Emax) at 1 µM stood at 7%.

In turn, `CC1(C)CCc2cccc(N3CCN(CCCCOc4ncc5ccc(=O)[nH]c5n4)CC3)c2O1` [Example G6′, 2-{4-[4-(2,2-Dimethyl-chroman-8-yl)-piperazin-1-yl]-butoxy}-8H-pyrido[2,3-d]pyrimidin-7-one] had a maximum response (Emax) at 1 µM (Table 2) of 17%.

`O=c1ccc2cnc(OCCCCN3CCN(c4cccc5c4OC(F)(F)O5)CC3)nc2[nH]1` [Example G7′, 2-{4-[4-(2,2-Difluoro-benzo[1,3]dioxol-4-yl)-piperazin-1-yl]-butoxy}-8H-pyrido[2,3-d]pyrimidin-7-one] registered a maximum response (Emax) at 1 µM (Table 2) of 38%.

As for `CC1(C)Cc2cccc(N3CCN(CCCCOc4ncc5ccc(=O)[nH]c5n4)CC3)c2O1` [Example G8′, 2-{4-[4-(2,2-Dimethyl-2,3-dihydro-benzofuran-7-yl)-piperazin-1-yl]-butoxy}-8H-pyrido[2,3-d]pyrimidin-7-one], the Emax at 1 µM (Table 2) was determined as 32%.

As for `Cc1ccc2cccc(N3CCN(CCCCOc4ncc5ccc(=O)[nH]c5n4)CC3)c2n1` [Example G9′, 2-{4-[4-(2-Methyl-quinolin-8-yl)-piperazin-1-yl]-butoxy}-8H-pyrido[2,3-d]pyrimidin-7-one], the maximum response (Emax) at 1 µM (Table 2) was 21%.

Take `Cc1nc(OCCCCN2CCN(c3cccc4c3OCCO4)CC2)nc2[nH]c(=O)ccc12` [Example G10′, 2-{4-[4-(2,3-Dihydro-benzo[1,4]dioxin-5-yl)-piperazin-1-yl]-butoxy}-4-methyl-8H-pyrido[2,3-d]pyrimidin-7-one]: the maximal effect (Emax) at 1 µM (Table 2) worked out at 18%.

Regarding `Cc1nc(OCCCCN2CCN(c3cccc4c3OCC4)CC2)nc2[nH]c(=O)ccc12` [Example G11′, 2-{4-[4-(2,3-Dihydro-benzofuran-7-yl)-piperazin-1-yl]-butoxy}-4-methyl-8H-pyrido[2,3-d]pyrimidin-7-one], the Emax at 1 µM (Table 2) was 39%.

For `Cc1nc(OCCCCN2CCN(c3cccc4ccoc34)CC2)nc2[nH]c(=O)ccc12` [Example G12′, 2-[4-(4-Benzofuran-7-yl-piperazin-1-yl)-butoxy]-4-methyl-8H-pyrido[2,3-d]pyrimidin-7-one], for the setting “Table 2”, the Emax at 1 µM amounted to 36%.

Compound `Cc1nc(OCCCCN2CCN(c3cccc4c3NC(=O)CC4)CC2)nc2[nH]c(=O)ccc12` [Example G14′, 4-Methyl-2-{4-[4-(2-oxo-1,2,3,4-tetrahydro-quinolin-8-yl)-piperazin-1-yl]-butoxy}-8H-pyrido[2,3-d]pyrimidin-7-one] came in with an Emax at 1 µM (Table 2) of 44%.

As to `Cc1nc(OCCCCN2CCN(c3cccc4cccnc34)CC2)nc2[nH]c(=O)ccc12` [Example G15′, 4-Methyl-2-[4-(4-quinolin-8-yl-piperazin-1-yl)-butoxy]-8H-pyrido[2,3-d]pyrimidin-7-one], where the note is “Table 2”, the Emax at 1 µM came out at 41%.

`O=C1CCc2cnc(OCCCCN3CCN(c4cccc5c4OCCC5)CC3)cc2N1` [Example H1′, 7-[4-(4-Chroman-8-yl-piperazin-1-yl)-butoxy]-3,4-dihydro-1H-[1,6]naphthyridin-2-one] showed an Emax at 1 µM (Table 2) of 22%.

Regarding `CC(C)Oc1ccccc1N1CCN(CCCCOc2ncc3ccc(=O)[nH]c3n2)CC1` [Example H2, 2-{4-[4-(2-Isopropoxy-phenyl)-piperazin-1-yl]-butoxy}-8H-pyrido[2,3-d]pyrimidin-7-one], the Emax at 1 µM (Table 1) turned out to be 22%.

`O=C1CCc2cnc(OCCCCN3CCN(c4cccc5c4OCC5)CC3)cc2N1` [Example H2′, 7-{4-[4-(2,3-Dihydro-benzofuran-7-yl)-piperazin-1-yl]-butoxy}-3,4-dihydro-1H-[1,6]naphthyridin-2-one] returned an Emax at 1 µM (Table 2) of 15%.

`O=c1ccc2cnc(OCCCCN3CCN(c4cccc5c4CCC5)CC3)nc2[nH]1` [Example H3, 2-[4-(4-Indan-4-yl-piperazin-1-yl)-butoxy]-8H-pyrido[2,3-d]pyrimidin-7-one] returned an Emax at 1 µM (Table 1) of 25%.

`O=C1CCc2cnc(OCCCCN3CCN(c4cccc5c4OC(F)(F)C(F)(F)O5)CC3)cc2N1` [Example H3′, 7-{4-[4-(2,2,3,3-Tetrafluoro-2,3-dihydro-benzo[1,4]dioxin-5-yl)-piperazin-1-yl]-butoxy}-3,4-dihydro-1H-[1,6]naphthyridin-2-one]: under “Table 2”, the Emax at 1 µM amounted to 22%.

Compound `O=c1ccc2cnc(OCCCCN3CCN(c4cccc5ccccc45)CC3)nc2[nH]1` [Example H4, 2-[4-(4-Naphthalen-1-yl-piperazin-1-yl)-butoxy]-8H-pyrido[2,3-d]pyrimidin-7-one] gave an Emax at 1 µM (Table 1) of 38%.
